Reference: patent US8742088B2, “Nucleic acids encoding antibodies or portions thereof comprising a heterologous T cell epitope and their use in modulating T cell responses” (priority 2007, dated 2014)

System: predicted CTL epitopes from Tie-2
Assay: Ex-vivo IFNγ ELISPOT with predicted CTL epitopes from Tie-2
Type: in vivo, HHDII mice
Settings: for Peptide-specific IFNγ response, highest mean value: peptide in IFA
Protocol: (C) and (D) HHDII mice were either untreated (c) or treated with 400 μg PC61mAb i.p., (d). 4 days later, all mice were immunized with the Tie2 C200HFc DNA construct. DNA immunizations were repeated at 7 day intervals for a total of 3 immunisations. 6 days after the final immunisation, splenocytes were harvested and restimulated in an ex-vivo IFNγ ELISPOT assay with 1 μg/ml of each of the predicted CTL epitopes from Tie-2. Bars indicate the mean of triplicate values for each individual mouse, normalized to background controls, with error bars representing the standard deviation from the mean.
(E) and (F), HHDII mice were either untreated (e) (n=3) or treated (f) (n=2) with 400 μg PC61 antibody i.p. After 4 days, all mice were immunised with 100 μg Z12 peptide and 100 μg Z48 peptide, mixed 1:1 in IFA (s.c.). Repeat peptide immunisations were administered 7 days after the first peptide immunisation. Splenocytes were harvested 14 days after the final immunisation and restimulated with 1 μg/ml Z12 peptide (black bars) or media alone (open bars) in an IFNγ ELIspot assay. Bars indicate the mean of triplicate values with error bars representing the standard deviation from the mean.
(G) HHDII mice were immunised with 100 μg Z12 peptide mixed 1:1 in IFA (s.c.). […] Splenocytes were harvested 7 days after the final immunisation and analysed for the presence of epitope specific responses to increasing peptide concentration in IFNγ elispot assay. Responses are measured from individual mice as spots/million splenocytes and avidity is assigned as the concentration which gives 50% maximal effector function.
(H) HHDII mice were immunised with ImmunoBody DNA construc DCIB71 via gene gun at days 0, 7 and 14. Splenocytes were harvested 7 days after the final immunisation and analysed for the presence of epitope specific responses to increasing peptide concentration in IFNγ elispot assay. Responses are measured from individual mice as spots/million splenocytes and avidity is assigned as the concentration which gives 50% maximal effector function. […]

**Q.** Which “Peptide-specific IFNγ response, highest mean value” (CD25 depleted animals, mouse 2) does the source give for ILINSLPLV [Z282, I L I N S L P L V] here?
**A.** 137 SFC/million cells

**Q.** What about the “Peptide-specific IFNγ response, highest mean value” (non-depleted animals, mouse 3) of the same sequence?
**A.** 215 SFC/million cells

**Q.** What about the “z12 epitope specific responses (frequency and avidity)” value (three weekly immunisations, peptide titration) of the same sequence?
**A.** low frequency and avidity epitope specific responses
